Data from patent US11230535B2, “CFTR regulators and methods of use thereof” (THE REGENTS OF THE UNIVERSITY OF CALIFORNIA, priority 2015, dated 2022).
Entries after “also recorded” stand apart in the source; their conditions may differ.

Key:
[1] = system: FRT cells; experiment: Cytotoxicity by Alamar Blue assay in FRT cells; assay type: cell-based, rat; settings: for cytotoxicity of 6k / 12: 10 μM, 8 h; for cytotoxicity at up to 100 μM: 1 or 24 h
[2] = system: cAMP; experiment: Cellular cAMP immunoassay in CFTR-expressing FRT cells; assay type: cell-based, rat; settings: 10 μM, 10 min
Procedure: cAMP and Ca^2+ assays. FRT cells expressing wildtype CFTR were cultured in 12-well plates. After washing with PBS, cells were incubated for 10 min with compounds in the absence or presence of 90 nM forskolin and then lysed. Lysates were assayed for cAMP content using a cAMP immunoassay kit (Parameter cAMP Immunoassay Kit, R&D Systems, Minneapolis, Minn.). For cytoplasmic calcium measurements, FRT cells in 96-well black-walled microplates were loaded with Fluo-4 NW (Invitrogen, Carlsbad, Calif.) and Fluo-4 fluorescence was measured with a plate reader equipped with syringe pumps and monochromators.

[3] = target: T1, human wild-type CFTR (Homo sapiens, UniProt P13569); experiment: Short-circuit current in FRT cells expressing wild-type human CFTR; assay type: cell-based; parameters: expressed in transfected cells
T1 sequence (P13569 whole entry): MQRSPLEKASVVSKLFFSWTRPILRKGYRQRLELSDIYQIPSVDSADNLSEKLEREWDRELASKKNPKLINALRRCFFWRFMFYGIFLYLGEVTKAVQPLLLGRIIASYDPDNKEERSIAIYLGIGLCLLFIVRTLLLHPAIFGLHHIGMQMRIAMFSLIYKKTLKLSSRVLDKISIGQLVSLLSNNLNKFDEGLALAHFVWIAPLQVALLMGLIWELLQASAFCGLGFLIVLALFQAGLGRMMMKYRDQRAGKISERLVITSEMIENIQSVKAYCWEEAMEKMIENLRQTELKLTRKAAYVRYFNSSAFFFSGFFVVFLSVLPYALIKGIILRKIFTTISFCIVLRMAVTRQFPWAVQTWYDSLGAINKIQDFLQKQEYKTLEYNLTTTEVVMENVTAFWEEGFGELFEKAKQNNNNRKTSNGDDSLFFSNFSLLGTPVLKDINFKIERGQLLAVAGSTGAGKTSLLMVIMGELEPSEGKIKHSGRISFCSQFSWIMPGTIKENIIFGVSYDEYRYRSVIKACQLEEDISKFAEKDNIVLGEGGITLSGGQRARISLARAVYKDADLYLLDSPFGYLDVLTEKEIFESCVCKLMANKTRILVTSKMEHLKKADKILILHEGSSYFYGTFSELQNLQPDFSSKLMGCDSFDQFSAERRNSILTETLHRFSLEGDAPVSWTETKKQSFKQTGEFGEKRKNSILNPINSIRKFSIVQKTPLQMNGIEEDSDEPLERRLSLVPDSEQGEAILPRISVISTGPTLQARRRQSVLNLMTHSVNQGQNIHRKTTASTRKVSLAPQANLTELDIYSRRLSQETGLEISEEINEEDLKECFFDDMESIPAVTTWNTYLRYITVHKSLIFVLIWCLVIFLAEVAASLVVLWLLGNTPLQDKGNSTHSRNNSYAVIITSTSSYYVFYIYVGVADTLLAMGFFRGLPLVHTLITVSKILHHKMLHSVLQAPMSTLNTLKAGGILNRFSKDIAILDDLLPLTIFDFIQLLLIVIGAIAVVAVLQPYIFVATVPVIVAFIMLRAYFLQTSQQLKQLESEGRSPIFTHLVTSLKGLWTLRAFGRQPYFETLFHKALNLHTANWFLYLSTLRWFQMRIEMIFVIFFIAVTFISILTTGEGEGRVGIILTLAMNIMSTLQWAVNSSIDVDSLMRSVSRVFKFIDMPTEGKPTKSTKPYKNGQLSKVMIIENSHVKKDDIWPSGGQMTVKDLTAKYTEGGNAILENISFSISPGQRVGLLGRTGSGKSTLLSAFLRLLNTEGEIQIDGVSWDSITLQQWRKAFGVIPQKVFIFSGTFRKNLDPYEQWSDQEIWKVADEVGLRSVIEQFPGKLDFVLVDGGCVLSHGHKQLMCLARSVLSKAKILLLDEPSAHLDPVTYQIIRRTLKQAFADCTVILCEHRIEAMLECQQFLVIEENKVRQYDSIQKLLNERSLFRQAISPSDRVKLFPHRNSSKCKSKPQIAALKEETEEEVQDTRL
Procedure: Short-circuit current was measured in FRT cells stably expressing wild-type human CFTR cultured on porous filters as described. The basolateral solution contained 130 mM NaCl, 2.7 mM KCl, 1.5 mM KH2PO4, 1 mM CaCl2, 0.5 mM MgCl2, 10 mM glucose, and 10 mM Na-HEPES (pH 7.3, 37° C.). In the apical solution 65 mM NaCl was replaced by Na gluconate, and CaCl2 was increased to 2 mM, and the basolateral membrane was permeabilized with 250 μg/ml amphotericin B. Short-circuit current was measured in freshly harvested adult mouse colon at 37° C. using symmetrical Krebs-bicarbonate buffer.
(§1) Fischer rat thyroid (FRT) cells stably expressing wild-type human CFTR were cultured on Snapwell inserts (Corning Costar, Corning N.Y., USA) for short-circuit current (Isc) measurements. After 6-9 days in culture, when the transepithelial resistance was >1000 Ω/cm^2, the inserts were mounted in an Ussing chamber system (World Precision Instruments, Sarasota, Fla., USA). The basolateral solution contained 130 mM NaCl, 2.7 mM KCl, 1.5 mM KH2PO4, 1 mM CaCl2, 0.5 mM MgCl2, 10 mM glucose, and 10 mM Na-HEPES (pH 7.3). In the apical bathing solution, 65 mM NaCl was replaced by Na gluconate, and CaCl2 was increased to 2 mM. Both solutions were bubbled with air and maintained at 37° C. The basolateral membrane was permeabilized with 250 μg/ml amphotericin B (26, 27). Hemichambers were connected to a DVC-1000 voltage clamp via Ag/AgCl electrodes and 3 M KCl agar bridges for Isc recording.
Short-circuit current measurement. Short-circuit current was measured in FRT cells stably expressing wild-type human CFTR cultured on porous filters as described. The basolateral solution contained 130 mM NaCl, 2.7 mM KCl, 1.5 mM KH2PO4, 1 mM CaCl2, 0.5 mM MgCl2, 10 mM glucose, and 10 mM Na-HEPES (pH 7.3, 37° C.). In the apical solution 65 mM NaCl was replaced by Na gluconate, and CaCl2 was increased to 2 mM, and the basolateral membrane was permeabilized with 250 μg/ml amphotericin B. Short-circuit current was measured in freshly harvested adult mouse colon at 37° C. using symmetrical Krebs-bicarbonate buffer.
as §1, with “Short-circuit current. Fischer” for “Fischer”
Short-circuit current measurement. Short-circuit current measurements were done as described. Briefly, Snapwell (Corning Costar, Corning, N.Y.) inserts containing CFTR-expressing FRT cells or human bronchial epithelial cells were mounted in Ussing chambers (Physiological Instruments, San Diego, Calif.). For FRT cells the hemichambers were filled with 5 ml of HCO3^−-buffered solution (basolateral) and half-Cl^− solution (apical), and the basolateral membrane was permeabilized with 250 μg/ml amphotericin B. Symmetrical HCO3^−-buffered solutions were used for human bronchial epithelial cells. Solutions were bubbled with 95% O2/5% CO2 and maintained at 37° C., and short-circuit current was measured on a DVC-1000 voltage clamp (World Precision Instruments Inc., Sarasota, Fla.) using Ag/AgCl electrodes and 3 M KCl agar bridges.

[4] = target: T1, human wild-type CFTR; experiment: Cell-based plate reader (YFP iodide influx) assay of CFTR function; parameters: expressed in transfected cells; host or cells: Fischer rat thyroid (FRT) cells stably co-expressing YFP-H148Q
Outline: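 YFP-quenching assay: I⁻ influx is read for 2 s baseline and 12 s after rapid I⁻ addition. The initial influx rate, from exponential regression, is a linear measure of channel function. Plates carry DMSO vehicle and 20 μM forskolin controls.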

[5] = FRT cells expressing human wild-type CFTR
[6] = FRT cells expressing human wild-type CFTR, read-out: EC50 for CFTR activation (short-circuit current)

CCN(CC)c1nc(Nc2ccc3ncsc3c2)nc(OC(C(F)(F)F)C(F)(F)F)n1 [6k, N′-(1,3-Benzothiazol-6-yl)-N,N-diethyl-6-[(1,1,1,3,3,3-hexafluoropropan-2-yl)oxy]-1,3,5-triazine-2,4-diamine]
cytotoxicity of 6k / 12 [1]: did not produce significant toxicity | cellular cAMP [2]: did not elevate cellular cAMP | CFTR activation (short-circuit current), in words [3, 5]: full CFTR activation | EC50 [3, 6]: 30 nM | EC50 [4]: ~50 nM | fold increase in potency over benzoxazole 6j [4]: ~3 fold | EC50 ([4]; bicyclic aniline analogs, read-out: EC50): 50 nM

CCN(CC)c1nc(Nc2ccccc2)nc(OC(C(F)(F)F)C(F)(F)F)n1 [CFTRact-K089, N,N-Diethyl-6-[(1,1,1,3,3,3-hexafluoropropan-2-yl)oxy]-N′-phenyl-1,3,5-triazine-2,4-diamine]
cytotoxicity at up to 100 μM [1]: no appreciable in vitro cytotoxicity | CFTR activation, Vmax ([3]; 100% = 20 μM forskolin): ~50 % Vmax | CFTR activation (short-circuit current), in words [3, 5]: fully activated CFTR | EC50 [3, 6]: ~250 nM | EC50 ([4]; N,N-diethyl-N′-aryl-1,3,5-triazine diamine analogs, read-out: EC50 for CFTR activation): 240 nM | % Activation ([4]; commercial analogs, FRT cells with YFP and wildtype CFTR, 125 nM forskolin): 111% | EC50 ([4]; commercial analogs, read-out: EC50 (full-dose response assay, compounds >80% activation)): 250 nM

CC(C)(C)c1cc(C(C)(C)C)c(NC(=O)c2c[nH]c3ccccc3c2=O)cc1O [VX-770, reference compound]
CFTR activation (short-circuit current), in words [3, 5]: relatively little activity; also recorded: relatively weak activity

Nc1ccc([N+](=O)[O-])cc1-c1nc2ccccc2n(Cc2ccccc2)c1=O [CFTRact-J027, 3-(2-amino-5-nitrophenyl)-1-benzylquinoxalin-2(1H)-one]
cytotoxicity at 20 μM ([1]; 20 μM): did not show cytotoxicity | cytotoxicity at 25 μM ([1]; 25 μM): did not show significant in vitro cytotoxicity | non-cytotoxic concentration relative to EC50 for CFTR activation ([1]; 25 μM): > 100 fold | cytotoxicity at up to 100 μM [1]: no appreciable in vitro cytotoxicity | activation of CFTR at 3 μM ([3]; 3 μM, wild-type CFTR, FRT cells): nearly full activation | CFTR activation (short-circuit current), in words [3, 5]: fully activated CFTR chloride conductance

CNc1nc(Nc2ccccc2)nc(OCC(F)(F)C(F)F)n1 [compound 12, N-methyl-N′-phenyl-6-(2,2,3,3-tetrafluoropropoxy)-1,3,5-triazine-2,4-diamine]
cytotoxicity of 6k / 12 [1]: non-toxic; also recorded: did not produce significant toxicity | cellular cAMP [2]: without causing cAMP or calcium elevation; also recorded: did not elevate cellular cAMP | EC50 [3]: ~30 nM | CFTR activation (short-circuit current), in words [3, 5]: fully activated CFTR chloride conductance; also recorded: full CFTR activation | EC50 [3, 6]: 31 nM | fold better EC50 than diethylamine analog 6a [4]: ~50 fold | fold more potent than hexafluoropropanol analog 11 [4]: ~3 fold | EC50 ([4]; N-methyl-N′-phenyl-1,3,5-triazine diamine analogs, read-out: EC50): 40 nM
